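At the GI50, growth is halved. At the TGI there is no net growth.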
Legend:
Assay in all cases: DTP human tumour cell line panel, 384-well format
786-0 renal = system: 786-0 renal
A498 renal = system: A498 renal
A549 NSCLC = system: A549 NSCLC
ACHN renal = system: ACHN renal
BT-549 breast = system: BT-549 breast
CAKI-1 renal = system: CAKI-1 renal
DU-145 prostate = system: DU-145 prostate
HCT-116 colon = system: HCT-116 colon
HL-60(TB) leukemia = system: HL-60(TB) leukemia
HOP-92 NSCLC = system: HOP-92 NSCLC
HS 578T breast = system: HS 578T breast
HT29 colon = system: HT29 colon
K-562 leukemia = system: K-562 leukemia
KM12 colon = system: KM12 colon
M14 melanoma = system: M14 melanoma
MCF7 breast = system: MCF7 breast
MDA-MB-231 breast = system: MDA-MB-231 breast
MDA-MB-435 melanoma = system: MDA-MB-435 melanoma
MOLT-4 leukemia = system: MOLT-4 leukemia
NCI-H460 NSCLC = system: NCI-H460 NSCLC
NCI-H522 lung = system: NCI-H522 lung
OVCAR-3 ovarian = system: OVCAR-3 ovarian
OVCAR-4 ovarian = system: OVCAR-4 ovarian
OVCAR-5 ovarian = system: OVCAR-5 ovarian
PC-3 prostate = system: PC-3 prostate
SF-268 CNS = system: SF-268 CNS
SK-MEL-2 melanoma = system: SK-MEL-2 melanoma
SK-MEL-28 melanoma = system: SK-MEL-28 melanoma
SN12C renal = system: SN12C renal
SNB-19 CNS = system: SNB-19 CNS
SNB-75 CNS = system: SNB-75 CNS
SR leukemia = system: SR leukemia
SW-620 colon = system: SW-620 colon
TK-10 renal = system: TK-10 renal
UACC-62 melanoma = system: UACC-62 melanoma

Compound: O=C(O)c1ccc2c(c1)CCCC(c1ccc(Cl)cc1Cl)=C2c1ccc(O[C@H]2CCN(CCCF)C2)cc1
- GI50 ([…]-0 renal): 12.7 µM
- TGI (786-0 renal): 25.3 µM
- GI50 (A498 renal): 6.94 µM
- TGI (A498 renal): 19.6 µM
- GI50 (A549 NSCLC): 9.67 µM
- GI50 (ACHN renal): 11.9 µM
- TGI (ACHN renal): 24.3 µM
- GI50 (BT-549 breast): 12 µM
- TGI (BT-549 breast): 24.3 µM
- GI50 (CAKI-1 renal): 13 µM
- TGI (CAKI-1 renal): 25.7 µM
- GI50 (DU-145 prostate): 13.6 µM
- TGI (DU-145 prostate): 26.6 µM
- GI50 (HCT-116 colon): 5.87 µM
- TGI (HCT-116 colon): 18.8 µM
- GI50 (HL-60(TB) leukemia): 4.44 µM
- TGI (HL-60(TB) leukemia): 16 µM
- GI50 (HOP-92 NSCLC): 12.3 µM
- TGI (HOP-92 NSCLC): 24.8 µM
- GI50 (HS 578T breast): 3.36 µM
- TGI (HS 578T breast): 18.1 µM
- GI50 (HT29 colon): 12.2 µM
- TGI (HT29 colon): 24.7 µM
- GI50 (K-562 leukemia): 7.96 µM
- TGI (K-562 leukemia): 20.7 µM
- GI50 (KM12 colon): 11.6 µM
- TGI (KM12 colon): 24.2 µM
- GI50 (M14 melanoma): 11.1 µM
- TGI (M14 melanoma): 23.1 µM
- GI50 (MCF7 breast): < 0.01 µM
- GI50 (MDA-MB-231 breast): 14.8 µM
- TGI (MDA-MB-231 breast): 28.1 µM
- GI50 (MDA-MB-435 melanoma): 12.2 µM
- TGI (MDA-MB-435 melanoma): 24.6 µM
- GI50 (MOLT-4 leukemia): 3.61 µM
- TGI (MOLT-4 leukemia): 14.2 µM
- GI50 (NCI-H460 NSCLC): 10.3 µM
- TGI (NCI-H460 NSCLC): 22.2 µM
- GI50 (NCI-H522 lung): 10.3 µM
- TGI (NCI-H522 lung): 21.9 µM
- GI50 (OVCAR-3 ovarian): 10.1 µM
- TGI (OVCAR-3 ovarian): 21.8 µM
- GI50 (OVCAR-4 ovarian): 11.3 µM
- TGI (OVCAR-4 ovarian): 23.5 µM
- GI50 (OVCAR-5 ovarian): 15.2 µM
- TGI (OVCAR-5 ovarian): 28.6 µM
- GI50 (PC-3 prostate): 10.2 µM
- TGI (PC-3 prostate): 21.9 µM
- GI50 (SF-268 CNS): 14.8 µM
- TGI (SF-268 CNS): 28.2 µM
- GI50 (SK-MEL-2 melanoma): 17.4 µM
- TGI (SK-MEL-2 melanoma): 31.2 µM
- GI50 (SK-MEL-28 melanoma): 11.7 µM
- TGI (SK-MEL-28 melanoma): 24 µM
- GI50 (SN12C renal): 14.4 µM
- TGI (SN12C renal): 27.5 µM
- GI50 (SNB-19 CNS): 13.1 µM
- TGI (SNB-19 CNS): 26 µM
- GI50 (SNB-75 CNS): 12.9 µM
- TGI (SNB-75 CNS): 25.6 µM
- GI50 (SR leukemia): 2.92 µM
- TGI (SR leukemia): 10.8 µM
- GI50 (SW-620 colon): 15.7 µM
- TGI (SW-620 colon): 29.4 µM
- GI50 (TK-10 renal): 12.5 µM
- TGI (TK-10 renal): 25.2 µM
- GI50 (UACC-62 melanoma): 13.5 µM
- TGI (UACC-62 melanoma): 26.3 µM

— PubChem BioAssay (NCI)
